Reference: PMC5099976 (ACS chemical biology, 2016)
pKi: −log10 of the molar value.

What was measured:
[1] = target: A156T NS3/4A protease variant (Hepatitis C virus genotype 1a, UniProt P27958, A1182T/C1073S/C1078L/C1185S/I1043Q/I1044E/I1098T/L1039E/L1040E/L1047Q/N1200S/T1100M/T1173A/V1687N); format: binding; conditions: binding A156T protease; ITC at 25 °C
[2] = system: A156T NS3/4A protease variant; format: binding, Hepatitis C Virus; conditions: A156T relative to WT; Table S4
[3] = target: WT genotype 1a NS3/4A protease (Hepatitis C virus genotype 1a, UniProt P27958, C1073S/C1078L/C1185S/I1043Q/I1044E/I1098T/L1039E/L1040E/L1047Q/N1200S/T1100M/T1173A); assay: Isothermal titration calorimetry, WT protease; format: binding; conditions: for pKi: WT protease, Table S4
[4] = binding WT protease, ITC at 25 °C

Row | Structure (SMILES) | enthalpy of binding [1] | enthalpic change due to A156T mutation [2] | entropic loss due to A156T mutation [2] | pKi [3] | pKi ([3]; listed as P1–P3) | enthalpy of binding [3, 4] | entropic contribution to binding (−TΔS) [3, 4]
1 | CCc1nc2ccc(OC)cc2nc1O[C@@H]1C[C@H]2C(=O)N[C@]3(C(=O)NS(=O)(=O)C4CC4)C[C@H]3/C=C\CCCCC[C@H](NC(=O)OC(C)(C)C)C(=O)N2C1 [5172-mcP1P3] | -6.3 kcal/mol | -0.5 kcal/mol | 3.3 kcal/mol | 8.71 | 8.70 | -5.8 kcal/mol | -6.0 kcal/mol
2 | C=C[C@@H]1C[C@]1(NC(=O)[C@@H]1C[C@@H]2CN1C(=O)[C@H](C(C)(C)C)NC(=O)O[C@@H]1C[C@H]1CCCCCc1nc3ccc(OC)cc3nc1O2)C(=O)NS(=O)(=O)C1CC1 [MK-5172, reference compound] |  | 2.7 kcal/mol | 2.2 kcal/mol |  |  |  | 
